# Data: patent US20190060239A1, “Technology for the Preparation of Microparticles” (Ansun Biopharma, Inc., priority 2007, published 2019)
# Assays:
# [1] = Microsphere quality score by light microscopy (scoring system of Table 13); type: physicochemical; settings: for microsphere formation: control
# Procedure: For each of the compounds listed in A-D above, and for DAS181, cocktail solutions containing 2 mg/ml of compound dissolved in an aqueous solvent and various counterions, antisolvents and pH, as listed below, were prepared in a 96-well microtiter plate (0.1 ml cocktail/well) at room temperature. Control solutions contained either solvent or antisolvent alone, with or without the counterion. Cocktails were cooled by placing in a freezer. The chilled plates were transferred onto pre-chilled (−45° C.) shelves of a Millrock Lab Series Lyophilizer, and the vacuum was applied. The frozen cocktail solutions were allowed to lyophilize for 16 hours.
# The lyophilized powders from the bottoms of the wells were transferred onto glass slides and analyzed by light microscopy for appearance. The quality of the product microspheres was scored based on the uniformity of the microspheres, the absence of undesirable non-microsphere particles (glass-like crystalline forms), and the absence of aggregates.
# Arginine was used as counterion and isopropanol was used as antisolvent. Concentrations of each of the cocktail components—the compound, the counterion and the antisolvent—were varied as shown below in Table 15, and the effect on microsphere quality assessed.
# Experiments were performed to evaluate the effect of antisolvent and counterion concentration variation on the formation of microspheres. The peptides leuprolide and somatostatin, and the antibiotics vancomycin and tobramycin, were tested under a variety of conditions for forming microspheres. Samples were analyzed in 96-well plates as described in the previous Examples.
# The experiments were performed using PGI2 and an analog of PGI2, Ciprostene, at a concentration of 2 mg/ml. Cocktail solutions were mixed at room temperature, then cooled by placing in a freezer. The chilled plates were transferred onto pre-chilled (−45° C.) shelves of a Millrock Lab Series Lyophilizer, and the vacuum was applied. The frozen cocktail solutions were allowed to lyophilize for 16 hours.
# Because the resulting prostaglandin microspheres are hygroscopic, upon microsphere initiation, the humidity was maintained at low levels during the experiments, using a nitrogen gas tank attached to the backfill system on the lyophilizer. Each of the reaction tubes was flushed with N2. In addition, the backfill valve on the lyophilizer was left open to continually flush a low humidity atmosphere over the samples. The microscope used to visualize the resulting microspheres was contained within a plastic bag that was continually purged with dry N2. Sample tubes were placed under the bag to equilibrate for approximately 30 seconds, before opening and spreading onto the glass slide.
# The compound/counterion/antisolvent conditions were as follows:
# Experiments were performed with 200 μl of each of the above cocktail solutions in a 2 ml lyophilization bottle (first flash freeze condition), and 25 μl of each of the above cocktail solutions in a PCR tube (second flash freeze condition). The samples in the lyophilization bottles took approximately 15 seconds to freeze. The samples in the PCR tubes took approximately 3 seconds or less to freeze.
# The cocktails in the 96-well plates were cooled by placing in a freezer. The chilled plates were transferred onto pre-chilled (−45° C.) shelves of a Millrock Lab Series Lyophilizer, and a vacuum was applied. The frozen cocktail solutions were allowed to lyophilize for 16 hours.
# The lyophilized powders from the bottoms of the wells were transferred onto glass slides and analyzed by light microscopy for appearance.
# [2] = Microsphere formation, size and appearance by light microscopy; type: physicochemical; settings: 5 mg/ml protein
molecule,measurement,setting,value
CC1(C)S[C@@H]2[C@H](NC(=O)[C@H](N)c3ccccc3)C(=O)N2[C@H]1C(=O)O [Ampicillin],Microsphere Quality,"[1]; 2 mg/ml compound, 2 mM Na-Citrate, 5% n-propanol, pH 5.0",3/4
same,Microsphere Quality,"[1]; 2 mg/ml compound, 2 mM Na-Glutamate, 5% n-propanol, pH 4.0",3-5
CCCCC[C@H](O)/C=C/[C@@H]1[C@H]2C/C(=C/CCCC(=O)O)O[C@H]2C[C@H]1O [Prostaglandin I2],Microsphere Quality,"[1]; compound 2 mg/ml, 2 mM Arginine, pH 9, 20% n-propanol, 5% t-butanol",7/8
same,Microsphere Quality,"[1]; compound 2 mg/ml, 2 mM Arginine, pH 9, 20% n-propanol, 55% t-butanol",5/6
same,Microsphere Quality,"[1]; compound 2 mg/ml, 2 mM TEA, pH 11, 20% n-propanol, 5% t-butanol",7/8
same,Microsphere Quality,"[1]; compound 2 mg/ml, 2 mM TEA, pH 11, 30% n-propanol, 0% t-butanol",2/3
NC[C@H]1O[C@H](O[C@H]2[C@H](O)[C@@H](O[C@H]3O[C@H](CO)[C@@H](O)[C@H](N)[C@H]3O)[C@H](N)C[C@@H]2N)[C@H](N)C[C@@H]1O [Tobramycin],Microsphere Quality,"[1]; compound 2 mg/ml, Itaconic acid-Na, pH 4.0 2 mM, Isopropanol 0%",4/5
same,Microsphere Quality,"[1]; compound 2 mg/ml, Itaconic acid-Na, pH 4.0 2 mM, Isopropanol 5%",7/8
same,Microsphere Quality,"[1]; compound 2 mg/ml, Itaconic acid-Na, pH 4.0 2 mM, Isopropanol 30%",8/9
same,Microsphere Quality,"[1]; compound 2 mg/ml, Itaconic acid-Na, pH 4.0 2 mM, Isopropanol 40%",6/7
same,Microsphere Quality,"[1]; compound 2 mg/ml, Itaconic acid-Na, pH 4.0 2 mM, Isopropanol […]",7/8
same,Microsphere Quality,"[1]; compound 2 mg/ml, Itaconic acid-Na, pH 4.0 5 mM, Isopropanol 5%",Crystals
same,Microsphere Quality,"[1]; compound 2 mg/ml, Itaconic acid-Na, pH 4.0 10 mM, Isopropanol 5%",Crystals
same,Microsphere Quality,"[1]; compound 2 mg/ml, Itaconic acid-Na, pH 4.0 15 mM, Isopropanol 5%",Crystals
same,Microsphere Quality,"[1]; compound 2 mg/ml, Itaconic acid-Na, pH 4.0 17 mM, Isopropanol 5%",Crystals
same,Microsphere Quality,[1]; pH 4,Crystals
C=C(CC(=O)O)C(=O)O [itaconic acid],microsphere formation,"[1]; no added compound: 2 mM itaconic acid buffered to pH 7, 5% isopropanol",hygroscopic microspheres
same,microsphere formation,"[1]; no added compound: 2 mM itaconic acid buffered with sodium hydroxide at pH 4, 15% isopropanol",microspheres were formed
CCNC(=O)[C@@H]1CCCN1C(=O)[C@H](CCCNC(=N)N)NC(=O)[C@H](CC(C)C)NC(=O)[C@@H](CC(C)C)NC(=O)[C@H](Cc1ccc(O)cc1)NC(=O)[C@H](CO)NC(=O)[C@H](Cc1c[nH]c2ccccc12)NC(=O)[C@H](Cc1c[nH]cn1)NC(=O)[C@@H]1CCC(=O)N1 [leuprolide],Microsphere Quality,"[1]; 2 mM Na-citrate, 15% isopropanol, pH 4.0",5/6
Green fluorescent protein,Microsphere Size (microns),"[2]; 5 mM pivalic acid, pH 7.0, 10% 1-propanol",0.5-1.5 microns
Hemoglobin,Microsphere Size (microns),"[2]; 5 mM glycine, pH 5.0, 10% isopropanol",0.4-0.7 microns
Lysozyme: purchased from Sigma,Microsphere Size (microns),"[2]; 5 mM citrate, pH 8.0, 5% isopropanol",4-5 microns
"Ovalbumin: purchased from Sigma (protein, UniProt P01012 2-386, looked up) Ovalbumin: GSIGAASMEFCFDVFKELKVHHANENIFYCPIAIMSALAMVYLGAKDSTRTQINKVVRFDKLPGFGDSIEAQCGTSVNVHSSLRDILNQITKPNDVYSFSLASRLYAEERYPILPEYLQCVKELYRGGLEPINFQTAADQARELINSWVESQTNGIIRNVLQPSSVDSQTAMVLVNAIVFKGLWEKAFKDEDTQAMPFRVTEQESKPVQMMYQIGLFRVASMASEKMKILELPFASGTMSMLVLLPDEVSGLEQLESIINFEKLTEWTSSNVMEERKIKVYLPRMKMEEKYNLTSVLMAMGITDVFSSSANLSGISSAESLKISQAVHAAHAEINEAGREVVGSAEAGVDAASVSEEFRADHPFLFCIKHIATNAVLFFGRCVSP",Microsphere Size (microns),"[2]; 5 mM pivalic acid, pH 4.0, 10% isopropanol",0.5-1 microns
"Trypsin: purchased from Worthington (protein, UniProt P00760 24-246, looked up) Serine protease 1: IVGGYTCGANTVPYQVSLNSGYHFCGGSLINSQWVVSAAHCYKSGIQVRLGEDNINVVEGNEQFISASKSIVHPSYNSNTLNNDIMLIKLKSAASLNSRVASISLPTSCASAGTQCLISGWGNTKSSGTSYPDVLKCLKAPILSDSSCKSAYPGQITSNMFCAGYLEGGKDSCQGDSGGPVVCSGKLQGIVSWGSGCAQKNKPGVYTKVCNYVSWIKQTIASN",Microsphere Size (microns),"[2]; 5 mM arginine, pH 8.0, 5% isopropanol",0.5-1 microns
"PIN 168 (PI8): hexahistidine-tagged human proteinase inhibitor 8 (SEQ ID NO:15) (protein, listed as Homo sapiens, hexahistidine tag; protease inhibitor 8 (PI8) (Serpin B8)) MDDLCEANGTFAISLFKILGEEDNSRNVFFSPMSISSALAMVFMGAKGSTAAQMSQALCLYKDGDIHRGFQSLLSEVNRTGTQYLLRTANRLFGEKTCDFLPDFKEYCQKFYQAELEELSFAEDTEECRKHINDWVAEKTEGKISEVLDAGTVDPLTKLVLVNAIYFKGKWNEQFDRKYTRGMLFKTNEEKKTVQMMFKEAKFKMGYADEVHTQVLELPYVEEELSMVILLPDDNTDLAVVEKALTYEKFKAWTNSEKLTKSKVQVFLPRLKLEESYDLEPFLRRLGMIDAFDEAKADFSGMSTEKNVPLSKVAHKCFVEVNEEGTEAAAATAVVRNSRCSRMEPRFCADHPFLFFIRRHKTNCILFCGRFSSP",Microsphere Size (microns),"[2]; 5 mM citrate, pH 5.0, 7% isopropanol",2-5 microns
"RNase A: purchased from Sigma (protein, UniProt P61823 27-150, looked up) Ribonuclease pancreatic: KETAAAKFERQHMDSSTSAASSSNYCNQMMKSRNLTKDRCKPVNTFVHESLADVQAVCSQKNVACKNGQTNCYQSYSTMSITDCRETGSSKYPNCAYKTTQANKHIIVACEGNPYVPVHFDASV",Microsphere Size (microns),"[2]; 5 mM citrate, pH 4.0, 5% isopropanol",0.4-1 microns
